23 compounds from patent US10711004B2 (Genentech, Inc., priority 2018, dated 2020) can be followed below.

Read-outs that look alike come from different tables or passages of the source.

This assay concerns the target human TRPA1 channel (Homo sapiens (Human), UniProt O75762). The assay can be described thus: hTRPA1 CHO Ca2+ FLIPR Tetra assay, block of cinnamaldehyde induced calcium influx. The assay is classed as cell-based. To be noted: CHO cells expressing TRPA1, Hill coefficient fixed to 1.5. The method in brief: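 IC50 values come from fixed-Hill fits of inhibition of cinnamaldehyde-induced (about EC50 level) calcium influx measured by FLIPR Tetra. Before agonist, TRPA1-expressing CHO cells loaded with calcium indicator were exposed to compound for 10 or 90 min at room temperature in HEPES-buffered HBSS, pH 7.4, with 0.02% BSA.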

Where [1] appears, read: read-out: hTRPA1 IC50 (10 min), compounds incubated 10 minutes at room temperature before cinnamaldehyde agonist.
[2] abbreviates: read-out: hTRPA1 IC50 (90 min), compounds incubated 90 minutes at room temperature before cinnamaldehyde agonist.

human TRPA1 channel, sequence (O75762 whole entry): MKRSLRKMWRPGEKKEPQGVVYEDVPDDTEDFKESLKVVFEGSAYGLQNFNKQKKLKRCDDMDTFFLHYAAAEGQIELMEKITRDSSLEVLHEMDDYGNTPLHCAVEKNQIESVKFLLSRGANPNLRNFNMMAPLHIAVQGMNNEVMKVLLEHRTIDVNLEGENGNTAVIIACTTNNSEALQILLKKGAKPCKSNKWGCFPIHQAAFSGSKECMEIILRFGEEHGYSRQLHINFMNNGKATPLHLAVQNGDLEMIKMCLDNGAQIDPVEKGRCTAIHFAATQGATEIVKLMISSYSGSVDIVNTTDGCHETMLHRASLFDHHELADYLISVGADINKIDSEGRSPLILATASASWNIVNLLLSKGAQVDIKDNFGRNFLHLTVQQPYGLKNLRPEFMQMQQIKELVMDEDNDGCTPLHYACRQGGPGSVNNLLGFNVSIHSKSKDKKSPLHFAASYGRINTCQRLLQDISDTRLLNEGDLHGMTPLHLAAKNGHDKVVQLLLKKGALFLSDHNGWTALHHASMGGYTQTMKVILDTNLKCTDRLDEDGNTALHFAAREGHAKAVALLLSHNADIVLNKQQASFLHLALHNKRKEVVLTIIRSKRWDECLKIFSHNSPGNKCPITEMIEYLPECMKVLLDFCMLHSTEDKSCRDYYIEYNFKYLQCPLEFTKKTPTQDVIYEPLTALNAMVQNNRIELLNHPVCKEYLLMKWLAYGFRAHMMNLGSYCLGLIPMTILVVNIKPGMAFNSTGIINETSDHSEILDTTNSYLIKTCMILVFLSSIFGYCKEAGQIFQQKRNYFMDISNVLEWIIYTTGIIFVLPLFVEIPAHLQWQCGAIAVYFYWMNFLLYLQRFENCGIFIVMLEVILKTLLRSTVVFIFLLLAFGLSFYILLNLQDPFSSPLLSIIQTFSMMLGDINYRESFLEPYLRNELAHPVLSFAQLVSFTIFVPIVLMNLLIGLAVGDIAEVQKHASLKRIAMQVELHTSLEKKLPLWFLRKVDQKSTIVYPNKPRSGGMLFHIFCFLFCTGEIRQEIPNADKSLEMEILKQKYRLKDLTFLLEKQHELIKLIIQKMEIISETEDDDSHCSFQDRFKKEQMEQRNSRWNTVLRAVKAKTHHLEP

`Cn1cnc2ncn(Cc3nc([C@H]4[C@@H]5CN(c6ccc7c(c6)CCCC7)C[C@@H]54)no3)c(=O)c21` [Example Compound 136]: under setting [1], the IC50 is 685 nM. With `Cc1nn(C)c2ncn(Cc3nc([C@H]4[C@@H]5CN(c6cc(Cl)ccn6)C[C@@H]54)no3)c(=O)c12` [Example Compound 137, 5-((3-((1R,5S,6r)-3-(4-chloropyridin-2-yl)-3-azabicyclo[3.1.0]hexan-6-yl)-1,2,4-oxadiazol-5-yl)methyl)-1,3-dimethyl-1,5-dihydro-4H-pyrazolo[3,4-d]pyrimidin-4-one], the IC50 is 58.5 nM under setting [1] and 43 nM under setting [2]. The matching figures for `Cc1cnn2ncn(Cc3nc([C@H]4[C@@H]5CN(c6cc(Cl)ccn6)C[C@@H]54)no3)c(=O)c12` [Example Compound 138, 3-((3-((1R,5S,6r)-3-(4-chloropyridin-2-yl)-3-azabicyclo[3.1.0]hexan-6-yl)-1,2,4-oxadiazol-5-yl)methyl)-5-methylpyrazolo[5,1-f][1,2,4]triazin-4(3H)-one]: 15.1 nM and 5.5 nM. As for `Cn1nnc2ncn(Cc3nc([C@H]4[C@@H]5CN(c6cccc(Cl)c6)C[C@@H]54)no3)c(=O)c21` [Example Compound 139, 6-((3-((1R,5S,6r)-3-(3-chlorophenyl)-3-azabicyclo[3.1.0]hexan-6-yl)-1,2,4-oxadiazol-5-yl)methyl)-1-methyl-1,6-dihydro-7H-[1,2,3]triazolo[4,5-d]pyrimidin-7-one], the IC50 by setting is: under setting [1], 10.6 nM; under setting [2], 3.6 nM. For the compound `Cc1ccc(N2C[C@@H]3[C@H](C2)[C@H]3c2noc(Cn3cnc4ncn(C)c4c3=O)n2)nc1` [Example Compound 140, 7-methyl-1-((3-((1R,5S,6r)-3-(5-methylpyridin-2-yl)-3-azabicyclo[3.1.0]hexan-6-yl)-1,2,4-oxadiazol-5-yl)methyl)-1,7-dihydro-6H-purin-6-one], the IC50 under setting [1] amounted to 222 nM and the concentration for half-maximal inhibition (IC50) under setting [2] was determined as 170 nM. On the same counts, the results for `Cn1cnc2ncn(Cc3nc([C@H]4[C@@H]5C=C(c6ccc(Cl)cc6)C[C@@H]54)no3)c(=O)c21` [Example Compound 141, 1-((3-((1S,5S,6R)-3-(4-chlorophenyl)bicyclo[3.1.0]hex-2-en-6-yl)-1,2,4-oxadiazol-5-yl)methyl)-7-methyl-1,7-dihydro-6H-purin-6-one] are 9.78 nM and 5.1 nM. The matching figures for `Cn1cnc2ncn(Cc3nc([C@@H]4[C@H]5C=C(c6ccc(Cl)cc6)C[C@H]54)no3)c(=O)c21` [Example Compound 142, 1-((3-((1R,5R,6S)-3-(4-chlorophenyl)bicyclo[3.1.0]hex-2-en-6-yl)-1,2,4-oxadiazol-5-yl)methyl)-7-methyl-1,7-dihydro-6H-purin-6-one]: 15.2 nM and 12 nM. For `Cc1ccnc2ncn(Cc3nc([C@H]4C[C@](F)(c5cccc(F)c5)C4)no3)c(=O)c12` [Example Compound 143, 3-((3-((1s,3s)-3-fluoro-3-(3-fluorophenyl)cyclobutyl)-1,2,4-oxadiazol-5-yl)methyl)-5-methylpyrido[2,3-d]pyrimidin-4(3H)-one], the IC50 under setting [1] was 33.7 nM and the IC50 under setting [2] turned out to be 28 nM.

Take `Cn1cnc2ncn(Cc3nc([C@H]4[C@@H]5CN(c6cncc(F)c6)C[C@@H]54)no3)c(=O)c21` [Example Compound 144, 1-((3-((1R,5S,6r)-3-(5-fluoropyridin-3-yl)-3-azabicyclo[3.1.0]hexan-6-yl)-1,2,4-oxadiazol-5-yl)methyl)-7-methyl-1,7-dihydro-6H-purin-6-one]: the IC50 by setting is: under setting [1], 363 nM; under setting [2], 89 nM.

For the compound `Cn1cnc2ncn(Cc3nc([C@H]4[C@@H]5CN(c6cncc(C(F)(F)F)c6)C[C@@H]54)no3)c(=O)c21` [Example Compound 145, 7-methyl-1-((3-((1R,5S,6r)-3-(5-(trifluoromethyl)pyridin-3-yl)-3-azabicyclo[3.1.0]hexan-6-yl)-1,2,4-oxadiazol-5-yl)methyl)-1,7-dihydro-6H-purin-6-one], the IC50 under setting [1] was 797 nM and the IC50 under setting [2] worked out at 480 nM.

As for `Cn1cnc2ncn(Cc3nc([C@H]4[C@@H]5CN(c6ccnc(Cl)c6)C[C@@H]54)no3)c(=O)c21` [Example Compound 146, 1-((3-((1R,5S,6r)-3-(2-chloropyridin-4-yl)-3-azabicyclo[3.1.0]hexan-6-yl)-1,2,4-oxadiazol-5-yl)methyl)-7-methyl-1,7-dihydro-6H-purin-6-one], the IC50 is, setting by setting: under setting [1], 460 nM; under setting [2], 100 nM. On the same counts, the results for `O=c1c2cccnc2ncn1Cc1nc([C@H]2C[C@H](Oc3cccc(F)c3)C2)no1` [Example Compound 147, 3-((3-((1r,3r)-3-(3-fluorophenoxy)cyclobutyl)-1,2,4-oxadiazol-5-yl)methyl)pyrido[2,3-d]pyrimidin-4(3H)-one] are 232 nM and 140 nM.

For `Cn1cnc2cnn(Cc3nc([C@H]4[C@@H]5CN(c6cc(Cl)ccn6)C[C@@H]54)no3)c(=O)c21` [Example Compound 148, 5-((3-((1R,5S,6r)-3-(4-chloropyridin-2-yl)-3-azabicyclo[3.1.0]hexan-6-yl)-1,2,4-oxadiazol-5-yl)methyl)-3-methyl-3,5-dihydro-4H-imidazo[4,5-d]pyridazin-4-one], the IC50 reads like this: under setting [1], 305 nM; under setting [2], 150 nM. In the case of `Cn1nnc2ncn(Cc3nc([C@H]4C[C@](F)(c5ccc(Cl)cc5)C4)no3)c(=O)c21` [Example Compound 149, 6-((3-((1s,3s)-3-(4-chlorophenyl)-3-fluorocyclobutyl)-1,2,4-oxadiazol-5-yl)methyl)-1-methyl-1,6-dihydro-7H-[1,2,3]triazolo[4,5-d]pyrimidin-7-one], the IC50 came to 253 nM under setting [1] and 160 nM under setting [2]. Regarding `Cn1cnc2ncn(Cc3nc([C@H]4[C@@H]5CN(c6ccc(-c7cnco7)cc6)C[C@@H]54)no3)c(=O)c21` [Example Compound 150, 7-methyl-1-((3-((1R,5S,6r)-3-(4-(oxazol-5-yl)phenyl)-3-azabicyclo[3.1.0]hexan-6-yl)-1,2,4-oxadiazol-5-yl)methyl)-1,7-dihydro-6H-purin-6-one], the half-maximal inhibitory concentration (IC50) was 162 nM under setting [1] and 38 nM under setting [2]. Consider `O=c1c2cccnc2ncn1Cc1nc([C@H]2[C@@H]3CN(c4ccc(Cl)cn4)C[C@@H]32)no1` [Example Compound 151, 3-((3-((1R,5S,6r)-3-(5-chloropyridin-2-yl)-3-azabicyclo[3.1.0]hexan-6-yl)-1,2,4-oxadiazol-5-yl)methyl)pyrido[2,3-d]pyrimidin-4(3H)one], for which the IC50 under setting [1] was 40 nM and the IC50 under setting [2] came to 38 nM. The matching figures for `O=c1c2cccnc2cnn1Cc1nc([C@H]2[C@@H]3CN(c4ccnc(F)c4)C[C@@H]32)no1` [Example Compound 152, 6-((3-((1R,5S,6r)-3-(2-fluoropyridin-4-yl)-3-azabicyclo[3.1.0]hexan-6-yl)-1,2,4-oxadiazol-5-yl)methyl)pyrido[2,3-d]pyridazin-5(6H)-one]: 58.7 nM and 41 nM.

For the compound `O=c1c2cccnc2cnn1Cc1nc([C@H]2[C@@H]3CN(c4cc(F)ccn4)C[C@@H]32)no1` [Example Compound 153, 6-((3-((1R,5S,6r)-3-(4-fluoropyridin-2-yl)-3-azabicyclo[3.1.0]hexan-6-yl)-1,2,4-oxadiazol-5-yl)methyl)pyrido[2,3-d]pyridazin-5(6H)-one], the IC50 stood at 95.7 nM under setting [1] and 60 nM under setting [2].

On to `O=c1c2cccnc2ncn1Cc1nc([C@H]2[C@@H]3CN(c4cc(F)ccn4)C[C@@H]32)no1` [Example Compound 154, 3-((3-((1R,5S,6r)-3-(4-fluoropyridin-2-yl)-3-azabicyclo[3.1.0]hexan-6-yl)-1,2,4-oxadiazol-5-yl)methyl)pyrido[2,3-d]pyrimidin-4(3H)-one], for which the IC50 reads like this: under setting [1], 196 nM; under setting [2], 130 nM.

Take `Cn1ncc2ncn(Cc3nc([C@H]4[C@@H]5CN(c6cc(Cl)ccn6)C[C@@H]54)no3)c(=O)c21` [Example Compound 155, 6-((3-((1R,5S,6r)-3-(4-chloropyridin-2-yl)-3-azabicyclo[3.1.0]hexan-6-yl)-1,2,4-oxadiazol-5-yl)methyl)-1-methyl-1,6-dihydro-7H-pyrazolo[4,3-d]pyrimidin-7-one]: the 50% inhibitory concentration (IC50) worked out at 89.3 nM under setting [1] and 73 nM under setting [2]. As to `Cn1cnc2ncn(Cc3nc([C@H]4[C@@H]5CN(C[C@@H](F)c6ccc(Cl)cc6)C[C@@H]54)no3)c(=O)c21` [Example Compound 156, 1-((3-((1R,5S,6S)-3-((S)-2-(4-chlorophenyl)-2-fluoroethyl)-3-azabicyclo[3.1.0]hexan-6-yl)-1,2,4-oxadiazol-5-yl)methyl)-7-methyl-1,7-dihydro-6H-purin-6-one], the IC50 by setting is: under setting [1], 843 nM; under setting [2], 860 nM. The matching figures for `O=c1c2cccnc2cnn1Cc1nc([C@H]2C[C@](F)(c3ccc(Cl)cc3)C2)no1` [Example Compound 157, 6-((3-((1s,3s)-3-(4-chlorophenyl)-3-fluorocyclobutyl)-1,2,4-oxadiazol-5-yl)methyl)pyrido[2,3-d]pyridazin-5(6H)-one]: 98.9 nM and 59 nM.

With `Cc1cc(C#N)nc2ncn(Cc3nc([C@H]4C[C@](F)(c5ccc(Cl)cc5)C4)no3)c(=O)c12` [Example Compound 158, 3-((3-((1s,3s)-3-(4-chlorophenyl)-3-fluorocyclobutyl)-1,2,4-oxadiazol-5-yl)methyl)-5-methyl-4-oxo-3,4-dihydropyrido[2,3-d]pyrimidine-7-carbonitrile], the IC50 worked out at 19.4 nM under setting [1] and 10 nM under setting [2].
